Experimental data published in the supplement of paper PMC11208160.

Assay: recombinant barcode read abundance after kanamycin selection (control-corrected) (log10(CPM+1)); higher = more efficient recombination; sequences stand for … in AGTGCAGAGAAAATCGGCCAGTTTTCTCTGCCTGCAGTCCGCATGCCGT…AGATTTATGCAGCGGACTGCCTTTCTCCCAAAGTGATAAACCGGACAGTATCATGGACCGGTTTTCCCGGTAATCCGTATTTGCAAGGTTGGTTTCACT; site = the 11-nt target
How it was run: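 Each value is log10(CPM+1). It describes recombination efficiency, taken as averaged, control-corrected counts per million of barcodes at recombinant junctions. The pooled E. coli library paired targets with IS621 bridge RNA target-binding loops, was co-electroporated with a donor plasmid, and was plated twice on chloramphenicol/ampicillin LB agar (control) and twice on chloramphenicol/ampicillin/kanamycin containing 0.1 mM IPTG.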
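Also: IS621 recombinase and bridge RNA in Escherichia coli cells.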

Row | Sequence | recombinant barcode read abundance (log10)
1 | CACTGGACTTGGGTTCTAACCTGTTGCCT (site CATTGGACTAG) | 0.286
2 | CACTTAACTTGGGTTCTAACCTGTTGCCA (site CACTTAACTTG) | 0.0764
3 | CACTTAACTTGGGTTCTAACCTGTTGCCA (site TGACAGTCTCT) | 0.0672
4 | CACTTAACTTGGGTTCTAACCTGTTGCCT (site CACTTAACTAG) | 0.8
5 | CACTTAACTTGGGTTCTAACCTGTTGCCT (site CACTTACCTAG) | 0
6 | CACTTAACTTGGGTTCTAACCTGTTGCCT (site CACTTAGCTAG) | 0.0439
7 | CACTTAACTTGGGTTCTAACCTGTTGCCT (site CACTTATCTAG) | 0
8 | CACTTACCTTGGGTTCTAACCTGTTGCCT (site CACTTAACTAG) | 0.0847
9 | CACTTACCTTGGGTTCTAACCTGTTGCCT (site CACTTACCTAG) | 0.742
10 | CACTTACCTTGGGTTCTAACCTGTTGCCT (site CACTTAGCTAG) | 0.00951
11 | CACTTACCTTGGGTTCTAACCTGTTGCCT (site CACTTATCTAG) | 0.0355
12 | CACTTAGCTTGGGTTCTAACCTGTTGCCT (site CACTTAACTAG) | 0.559
13 | CACTTAGCTTGGGTTCTAACCTGTTGCCT (site CACTTACCTAG) | 0.181
14 | CACTTAGCTTGGGTTCTAACCTGTTGCCT (site CACTTAGCTAG) | 0.269
15 | CACTTAGCTTGGGTTCTAACCTGTTGCCT (site CACTTATCTAG) | 0.0252
16 | CACTTGACTTGGGTTCTAACCTGTTGCCT (site CACTTGACTAG) | 1.2
17 | CACTTGACTTGGGTTCTAACCTGTTGCCT (site CACTTGCCTAG) | 0.213
18 | CACTTGACTTGGGTTCTAACCTGTTGCCT (site CACTTGGCTAG) | 0.137
19 | CACTTGACTTGGGTTCTAACCTGTTGCCT (site CACTTGTCTAG) | 0.0323
20 | CACTTGACTTGGGTTCTAACCTGTTGCTT (site CACTTGACTAA) | 0.331

Row | Sequence | recombinant barcode read abundance (log10)
21 | CACTTGACTTGGGTTCTAACCTGTTGCTT (site CGCTTGTCTAA) | 0.075
22 | CACTTGTCTTGGGTTCTAACCTGTTGCCT (site CACTTGACTAG) | 0.0529
23 | CACTTGTCTTGGGTTCTAACCTGTTGCCT (site CACTTGCCTAG) | 0.0539
24 | CACTTGTCTTGGGTTCTAACCTGTTGCCT (site CACTTGGCTAG) | 0.283
25 | CACTTGTCTTGGGTTCTAACCTGTTGCCT (site CACTTGTCTAG) | 1.7
26 | CAGACGCCTTGGGTTCTAACCTGTTGCAG (site CACACTCCTCT) | 0.039
27 | CAGACGCCTTGGGTTCTAACCTGTTGCAG (site CAGACGCCTCT) | 1.38
28 | CAGACTCCTTGGGTTCTAACCTGTTGCCT (site CAGACTCCTAG) | 0.214
29 | CAGACTCCTTGGGTTCTAACCTGTTGCCT (site TAGACTACTAG) | 0.186
30 | CAGAGCACTTGGGTTCTAACCTGTTGCCT (site AAGAGCACTAG) | 0.107
31 | CAGAGCACTTGGGTTCTAACCTGTTGCCT (site CAGAGCACTAG) | 1.2
32 | CAGAGCACTTGGGTTCTAACCTGTTGCCT (site GAGAGCACTAG) | 0.185
33 | CAGAGCACTTGGGTTCTAACCTGTTGCCT (site TAGAGCACTAG) | 0.138
34 | CAGAGTACTTGGGTTCTAACCTGTTGCCT (site CACAGTGCTAG) | 0.0547
35 | CAGAGTACTTGGGTTCTAACCTGTTGCCT (site CAGAGTACTAG) | 0.216
36 | CAGAGTCCTTGGGTTCTAACCTGTTGCTT (site CAGAGTCCTAA) | 1.59
37 | CAGAGTCCTTGGGTTCTAACCTGTTGCTT (site CATAGTCCTAG) | 0.105
38 | CAGCACCCTTGGGTTCTAACCTGTTGCGG (site CAGCACCCTCC) | 0.515
39 | CAGCACCCTTGGGTTCTAACCTGTTGCGG (site CGGTACCCTCC) | 0.13
40 | CAGCAGCCTTGGGTTCTAACCTGTTGCTT (site CAGCAGCCTAA) | 0.742

Row | Sequence | recombinant barcode read abundance (log10)
41 | CAGCAGCCTTGGGTTCTAACCTGTTGCTT (site TCCGTTACTCG) | 0.0126
42 | CAGCATCCTTGGGTTCTAACCTGTTGCAG (site ATCACGTCTAG) | 0.157
43 | CAGCATCCTTGGGTTCTAACCTGTTGCAG (site CAGCATCCTCT) | 1.11
44 | CAGCGGCCTTGGGTTCTAACCTGTTGCCT (site CAGAGGCCTAG) | 0.191
45 | CAGCGGCCTTGGGTTCTAACCTGTTGCCT (site CAGCGGCCTAG) | 0.288
46 | CAGCGGCCTTGGGTTCTAACCTGTTGCCT (site CAGGGGCCTAG) | 0.121
47 | CAGCGGCCTTGGGTTCTAACCTGTTGCCT (site CAGTGGCCTAG) | 0.718
48 | CAGGACCCTTGGGTTCTAACCTGTTGCCT (site CAAGACCCTAG) | 1.93
49 | CAGGACCCTTGGGTTCTAACCTGTTGCCT (site CACGACCCTAG) | 0.437
50 | CAGGACCCTTGGGTTCTAACCTGTTGCCT (site CAGGACCCTAG) | 2.18
51 | CAGGACCCTTGGGTTCTAACCTGTTGCCT (site CATGACCCTAG) | 0.409
52 | CAGGATGCTTGGGTTCTAACCTGTTGCCT (site CAAGATGCTAG) | 0.731
53 | CAGGATGCTTGGGTTCTAACCTGTTGCCT (site CACGATGCTAG) | 0.0431
54 | CAGGATGCTTGGGTTCTAACCTGTTGCCT (site CAGGATGCTAG) | 1.35
55 | CAGGATGCTTGGGTTCTAACCTGTTGCCT (site CATGATGCTAG) | 0.0284
56 | CAGGCGTCTTGGGTTCTAACCTGTTGCAC (site CAGGCGTCTGT) | 1.12
57 | CAGGCGTCTTGGGTTCTAACCTGTTGCAC (site GAGGGGTCTGT) | 0.142
58 | CAGGGCCCTTGGGTTCTAACCTGTTGCCT (site AAGGGCCCTAG) | 0.329
59 | CAGGGCCCTTGGGTTCTAACCTGTTGCCT (site CAGGGCCCTAG) | 2.14
